Legend:
M3 melanoma cells = test: M3 melanoma model; type: in vivo, mice; conditions: lipid alone, equivalent amount; treated days 5, 10, 14, 18
Protocol: On day 0, mice were inoculated intraperitoneally with M3 melanoma cells. Following the inoculation of M3 tumor cells, the mice were treated on days […], 14, and 18 with either the GL67:pNull complex, which is cationic lipid GL67 complexed to a null vector (a vector without an expressible insert), or were left untreated (control). All untreated control animals died by day 40, while greater than 85% of the animals treated with the GL 67:pNull complex were alive on day 68.
On day 68, the surviving animals were rechallenged subcutaneously with M3 tumor cells. A naive group of animals was also challenged with these same cells in parallel. All the animals in the naive group died by day 105, while approximately 40% of the animals that had been originally treated with the GL 67:pNull complex survived not only the initial intraperitoneal tumor cells but also the secondary subcutaneous challenge.
Following the intraperitoneal inoculation on day 0 of M3 tumor cells, groups of mice were treated on days 5, 10, 14, and 18 with either GL 67:pNull complexes (lipid:pNull), an equivalent amount of GL 67 (lipid alone), an equivalent amount of pNull DNA (pNull vector alone), or were untreated.

cytokines in BALF = test: Cytokine levels in mouse BALF after intranasal instillation (ELISA); type: in vivo, BALB/c mice; conditions: component instilled alone; BALF 24 h
Description: Cytokine levels in the mouse BALF were quantitated using enzyme-linked immunosorbent assay (ELISA) kits as specified by the manufacturers. IFN-γ, TNF-α, IL1-α, IL-1β, IL-10 and IL-6 ELISA kits were from Genzyme Corporation, while mKC, MIP-2 and GM-CSF ELISA kits were from R&D Systems, and the Leukotriene B4 ELISA kit was from Perseptive Diagnostics.
The cationic lipid:pDNA complexes were formed by mixing equal volumes of GL67:DOPE (1:2) with pDNA as described previously (Lee et al., Hum. Gene Ther. 7: 1701-1717, (1996)) to a final concentration of 0.6:1.2:3.6 mM (GL-67:DOPE:pDNA) or 0.3:0.6:1.8 mM, as indicated in the figure legends. The DNA concentration is expressed in terms of nucleotides, using an average nucleotide molecular weight of 330 daltons. BALB/c mice were instilled intranasally with 100 μl of complex as described. See Scheule et al., Hum. Gene Ther. 8: 689-707 (1997). The animals were euthanized and their lungs were lavaged 24 h post-instillation using phosphate-buffered saline (PBS). The recovered BALF were centrifuged at 1,500 rpm for 4 min, and the resulting supernatants were removed and frozen at −80° C. for subsequent cytokine analysis. […]
To determine whether methylation of pDNA affected the inflammatory response in the lungs, we measured the levels of several different cytokines in the BALF 24 h after instillation. […]

BALB/c mouse lungs = test: Histopathological analysis of lung after intranasal instillation; type: in vivo, BALB/c mice; conditions: component alone; scale from 0 to 4; 2 days post-instillation
Description: The histopathological changes within BALB/c mouse lungs following administration of either cationic lipid alone, pDNA alone, or cationic lipid:pDNA complexes were also examined. BALB/c mice were instilled intranasally with GL-67:(m)pCF1-CAT, GL67:pCF1-CAT, GL-67 alone, (m)pCF1-CAT, pCF1-CAT, or water (vehicle control). Mice were sacrificed 2 days post-instillation and the lungs were processed for histological examination in a blinded manner. Histopathology.
Lungs were fixed by inflation at 30 cm of H2O pressure with 2% paraformaldehyde and 0.2% glutaraldehyde. Representative samples were taken from each lung lobe, embedded in glycol methacrylate, sectioned and stained with hematoxylin and eosin. Histopathology on the lung was evaluated in a blinded fashion and graded subjectively using a scale of 0 to 4, where a score of 0 indicates no abnormal findings and a score of 4 reflects severe changes with intense infiltrates. See Scheule et al., Hum. Gene Ther. 8: 689-707 (1997).
The extent of lung inflammation was graded using a scale from 0 to 4, with 0 indicating no abnormalities, 1 indicating a minimal change, 2 a mild change, 3 a moderate change, and 4 representing severe changes from a normal lung (FIG. 4).

[1] = test system: cytokine and cellular levels in the BALF; conditions: complexes formed between DOTMA and pDNA; Friemark et al. 1998; cited from earlier work

CC(C)CCC[C@@H](C)[C@H]1CC[C@H]2[C@@H]3CC=C4C[C@@H](OC(=O)N(CCCN)CCCCNCCCN)CC[C@]4(C)[C@H]3CC[C@]12C [GL-67]
mice surviving more than 50 days post tumor cell inoculation (M3 melanoma cells): about 35%
levels of these four cytokine (TNF-α, IFN-γ, IL-6, KC) in BALF (cytokines in BALF): low levels
lung inflammation score (BALB/c mouse lungs): scored slightly lower than lungs that received lipid:pDNA complex

CCCCCCCC/C=C\CCCCCCCCOCC(C[N+](C)(C)C)OCCCCCCCC/C=C\CCCCCCCC.[Cl-] (stereo not shown) [DOTMA, N-[1-(2-3-dioleyloxy)propyl]-N,N,N-trimethylammonium chloride]
cytokine and cellular levels in the BALF of treated animals [1]: enhanced
